Like-named read-outs stand apart in the source and are kept apart here.
Assays:
S. aureus FDA-209-p = test: Antimicrobial activity test: MIC by the agar plate dilution method, S. aureus FDA-209-p; format: cell-based, Staphylococcus aureus; conditions: inoculum 1×10^6 cells/ml
Method in brief: (§1)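 Read-out is the minimal inhibitory concentration, determined in vitro by agar plate dilution with test inocula of 1×10^6 cells/ml.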

E. coli NIHJ = test: Antimicrobial activity test: MIC by the agar plate dilution method, E. coli NIHJ; format: cell-based; conditions: inoculum 1×10^6 cells/ml
Method: In order to investigate the in vitro activity of the under-mentioned compounds against various bacteria, the minimal inhibitory concentration (MIC) values were determined by the agar plate dilution method [see Chemotherapy, 22, 1126-1128 (1974)].
Each test inoculum was adjusted to 1×10^6 cells/ml (O.D., 600 mμ: 0.07-0.16).

E. coli No. 29 = test: Antimicrobial activity test: MIC by the agar plate dilution method, E. coli No. 29; format: cell-based
Method in brief: as §1

K. pneumoniae NCTC-9632 = test: Antimicrobial activity test: MIC by the agar plate dilution method, K. pneumoniae NCTC-9632; format: cell-based; conditions: inoculum 1×10^6 cells/ml
Method in brief: as §1

P. mirabilis 1287 = test: Antimicrobial activity test: MIC by the agar plate dilution method, P. mirabilis 1287; format: cell-based; conditions: P. mirabilis 1287; inoculum 1×10^6 cells/ml
Method in brief: as §1

M. morganii ATCC-25830 = test: Antimicrobial activity test: MIC by the agar plate dilution method, M. morganii ATCC-25830; format: cell-based; conditions: inoculum 1×10^6 cells/ml
Method in brief: as §1

S. marcescens IFO-12648 = test: Antimicrobial activity test: MIC by the agar plate dilution method, S. marcescens IFO-12648; format: cell-based
Method in brief: as §1

P. aeruginosa NCTC-10490 = test: Antimicrobial activity test: MIC by the agar plate dilution method, P. aeruginosa NCTC-10490; format: cell-based; conditions: inoculum 1×10^6 cells/ml
Method in brief: as §1

[1] = E. coli No. 29, inoculum 1×10^6 cells/ml
[2] = S. marcescens IFO-12648, inoculum 1×10^6 cells/ml

Substance	MIC (S. aureus FDA-209-p)	MIC (E. coli NIHJ)	MIC (E. coli No. 29; [1])	MIC (K. pneumoniae NCTC-9632)	MIC (P. mirabilis 1287)	MIC (M. morganii ATCC-25830)	MIC (S. marcescens IFO-12648; [2])	MIC (P. aeruginosa NCTC-10490)	MIC (E. coli No. 29)	MIC (S. marcescens IFO-12648)
7-[2-(2-Aminothiazol-4-yl)-2-cyanomethyloxyiminoacetamido]-3-[(1,2,3-thiadiazol-5-yl)thiomethyl]-Δ^3 -O-2-isocephem-4-carboxylic acid trifluoroacetate (syn-isomer) [Example 55]	0.2 µg/mL	≤ 0.025 µg/mL	≤ 0.025 µg/mL	≤ 0.025 µg/mL	≤ 0.025 µg/mL	≤ 0.025 µg/mL	0.1 µg/mL	1.56 µg/mL	–	–
7-[2-(2-Aminothiazol-4-yl)-2-methoxyiminoacetamido]-3-[(1,2,3-thiadiazol-5-yl)thiomethyl]-Δ^3 -O-2-isocephem-4-carboxylic acid trifluoroacetate (syn-isomer) [No. 14]	0.1 µg/mL	≤ 0.025 µg/mL	≤ 0.025 µg/mL	≤ 0.025 µg/mL	≤ 0.025 µg/mL	≤ 0.025 µg/mL	0.1 µg/mL	1.56 µg/mL	–	–
7-[2-(2-Aminothiazol-4-yl)-2-benzyloxyiminoacetamido]-3-[(1,3,4-thiadiazol-2-yl)thiomethyl]-Δ^3 -O-2-isocephem-4-carboxylic acid trifluoroacetate (syn-isomer) [No. 13]	0.1 µg/mL	≤ 0.025 µg/mL	≤ 0.025 µg/mL	≤ 0.025 µg/mL	≤ 0.025 µg/mL	≤ 0.025 µg/mL	0.1 µg/mL	1.56 µg/mL	–	–
7-[2-(2-Formamidothiazol-4-yl)-2-methylthiomethoxyiminoacetamido]-3-[(1,3,4-thiadiazol-2-yl)thiomethyl]-Δ^3 -O-2-isocephem-4-carboxylic acid (syn-isomer) [Example 45]	0.39 µg/mL	0.39 µg/mL	–	0.39 µg/mL	0.2 µg/mL	0.39 µg/mL	–	6.25 µg/mL	0.39 µg/mL	0.78 µg/mL
Benzyl 7-[2-(2-chloroacetamidothiazol-4-yl)-2-ethoxyiminoacetamido]-3-[(1,3,4-thiadiazol-2-yl)thiomethyl]-Δ^3 -O-2-isocephem-4-carboxylate (syn-isomer) [Example 27]	0.1 µg/mL	0.10 µg/mL	0.1 µg/mL	0.2 µg/mL	0.1 µg/mL	0.1 µg/mL	0.2 µg/mL	0.2 µg/mL	–	–
7-[2-(2-Aminothiazol-4-yl)-2-methoxyiminoacetamido]-3-[(carbamoyloxy)methyl]-Δ^3 -O-2-isocephem-4-carboxylic acid (syn-isomer) [No. 1]	0.78 µg/mL	0.2 µg/mL	–	0.39 µg/mL	0.1 µg/mL	0.1 µg/mL	–	1.56 µg/mL	0.39 µg/mL	0.78 µg/mL
7-[2-(2-Aminothiazol-4-yl)-2-propargyloxyiminoacetamido]3-[(1,3,4-thiadiazol-2-yl)thiomethyl-66^3 -O-b 2-isocephem-4-carboxylic acid trifluoroacetate (syn-isomer) [No. 7]	–	≤ 0.025 µg/mL	0.1 µg/mL	0.1 µg/mL	≤ 0.025 µg/mL	0.05 µg/mL	0.2 µg/mL	0.78 µg/mL	–	–
7-[2-(2-Aminothiazol-4-yl)-2-ethoxyiminoacetamido]-3-[(1,3,4-thiadiazol-2-yl)thiomethyl]-Δ^3 -O-2-isocephem-4-carboxylic acid (syn-isomer) [Example 29]	0.05 µg/mL	≤ 0.025 µg/mL	≤ 0.025 µg/mL	0.05 µg/mL	≤ 0.025 µg/mL	≤ 0.025 µg/mL	0.2 µg/mL	6.25 µg/mL	–	–
(6S,7S)-7-[2-(2-Aminothiazol-4-yl}-2methoxyiminoacetamido]-3-[(1,3,4-thiadiazol-2-yl)thiomethyl]-Δ^3 -O-2-isocephem-4-carboxylic acid trifluoroacetate (syn-isomer) [No. 15]	–	≤ 0.025 µg/mL	≤ 0.025 µg/mL	≤ 0.025 µg/mL	≤ 0.025 µg/mL	≤ 0.025 µg/mL	0.2 µg/mL	1.56 µg/mL	–	–
